The bioavailability is the share of a dose that reaches the circulation, judged against a reference dose that is usually intravenous.

Where two headings read alike, the source gives them in different places.

For series [1] the following is noted: cited from earlier work.
The conditions of series [2]: cited from earlier work. The source holds these as a separate data set.
Series [3] is described as follows: Bioavailability and pharmacokinetics of sodium cromoglycate from the literature. The series is classed as in vivo, human. Particulars: oral, maximum administered dose of 2800 mg in a 70 kg person.
Method: Urinary levels over time are probably a better measure of bioavailability.
Thus the maximum administered topical daily dose is expected to be 800 mg.
In series [4] the test system is antigen induced wheal and flare reaction in the skin. Particulars: cited from earlier work.
The conditions of series [5]: radioimmunoassay after applying an aqueous solution to skin; cited from earlier work.

With `O=C([O-])c1cc(=O)c2c(OCC(O)COc3cccc4oc(C(=O)[O-])cc(=O)c34)cccc2o1.[Na+].[Na+]` [sodium cromoglycate, disodium 5,5′-[(2-hydroxytrimethylene)dioxy]bis-[4-oxo-4H-1-benzopyran-2-carboxylate]], the metabolism entry in series [1] (in vivo) is reported as “not metabolised”. In series [1] (in vivo), the “removal from the blood” value was “rapidly removed”. In addition, the bioavailability in series [1] (oral, food allergy) is reported as 1%. Moreover, the main adverse effects result in series [2] (clinical practice, generally transient) was “headache, dizziness, local irritation of the target organ and an unpleasant taste in the mouth”. In addition, the adverse effects entry is “burning and stinging” in series [2] (eye drops); “epistaxis” in series [2] (intra-nasal administration); “nausea, skin rash and joint pain” in series [2] (oral administration). For the same molecule, the absorbed dose in series [3] stood at 28 mg. Besides, the “dependence of effect on pretreatment” value in series [4] (3 days pretreatment versus single dose immediately preceding skin prick testing) is listed as “significant effect is observed only after pretreatment”. For the same molecule, the “effect on antigen induced wheal and flare reaction” value in series [4] (topical, human subjects) is on record as “inhibits”. Moreover, the “sodium cromoglycate in the blood” value in series [5] is given as “unable to detect”.

The record behind these values is patent US7109246B1, “Pharmaceutical compositions comprising an amphoteric surfactant an alkoxylated cetyl alcohol and a polar drug” (Hewlett Healthcare Ltd, priority 1998, dated 2006).
